Assay results taken from patent publication US10457637B2, “Benzenesulfonamide derivatives as inverse agonists of retinoid-related orphan receptor gamma (RORγ(T))” (GALDERMA RESEARCH & DEVELOPMENT, priority 2014, dated 2019).

What was measured:
Format in all cases: cell-based
hERG = hERG (Homo sapiens (Human), UniProt Q12809); assay: hERG test, patch clamp on CHO-K1 cells; conditions: CHO-K1 cells transfected with the hERG gene
Source text: In the table below, the median inhibitory concentrations IC50 for the compounds belonging to formula (I) according to the invention have been given in accordance with the hERG test.
The hERG test makes it possible to study a gene which codes for a protein required for the functioning of heart tissue potassium channels. The patch clamp method on CHO-K1 cells (cells transfected with the hERG gene which has K+ ion activity on the membranes) is used for in vitro prediction of the blocking of hERG (human Ether-a-go-go Related).
The extracellular solution (control) is applied first. The cells (Chinese hamster ovarian cells expressing the Human Ether-a-go-go Related Gene) are stabilized with the extracellular solution for 5 minutes. The cells are incubated for 5 minutes with the molecules from the weakest to the strongest concentration at 0.6% DMSO final.
The result is expressed in the form of an IC50 value in μM.

[1] = test system: IL-17A secretion by CD4+ cells; assay: IL-17A secretion by CD4+ cells (HTRF); conditions: 96 h; human CD4+ cells activated with anti-CD3 and anti-CD28, 4 days of incubation; read-out: IC50 hCD4/IL17
Procedure: This model allows measurement of the effect of inhibitors on IL-17A secretion by CD4+ cells. […] The amount of IL-17a secreted is measured by the TR-FRET (kit HTRF® Human Interleukin 17A (Cisbio, #64H17PEC)) technology.
The cells are rapidly thawed, resuspended in their culture medium (RPMI inactivated 10% FCS) supplemented with soluble anti-CD28 antibodies and seeded (100 000 cells/well) in 96-well plates precoated with anti-CD3 antibodies. The cells are then treated with the ranges of inhibitors to be tested (from 1000 nM to 0.05 nM, 0.1% DMSO). […] The IC50 values are calculated from a 4-parameter logistic model using the XLFit software (IDBS).

[2] = target: ROR gamma ligand-binding domain (hRORg) (Homo sapiens (Human), UniProt P51449); assay: GAL4-RORγ transactivation (luciferase reporter, HG5LN HeLa line); conditions: 18 hours incubation
Sequence of ROR gamma ligand-binding domain (hRORg) (P51449 269-508): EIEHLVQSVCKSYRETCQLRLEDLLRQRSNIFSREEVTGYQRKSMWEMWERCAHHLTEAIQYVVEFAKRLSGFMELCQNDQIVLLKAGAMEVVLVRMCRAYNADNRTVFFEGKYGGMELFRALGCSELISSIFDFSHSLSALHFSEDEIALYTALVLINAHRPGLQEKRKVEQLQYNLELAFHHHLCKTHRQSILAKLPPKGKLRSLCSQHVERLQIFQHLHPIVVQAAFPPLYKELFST
How it was run: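 HeLa-derived HG5LN cells stably expressing GAL4 DBD fused to human RORγ LBD with GAL4-driven luciferase reporter; inhibition of constitutive activity lowers luminescence.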

Sequence of hERG (Q12809 whole entry): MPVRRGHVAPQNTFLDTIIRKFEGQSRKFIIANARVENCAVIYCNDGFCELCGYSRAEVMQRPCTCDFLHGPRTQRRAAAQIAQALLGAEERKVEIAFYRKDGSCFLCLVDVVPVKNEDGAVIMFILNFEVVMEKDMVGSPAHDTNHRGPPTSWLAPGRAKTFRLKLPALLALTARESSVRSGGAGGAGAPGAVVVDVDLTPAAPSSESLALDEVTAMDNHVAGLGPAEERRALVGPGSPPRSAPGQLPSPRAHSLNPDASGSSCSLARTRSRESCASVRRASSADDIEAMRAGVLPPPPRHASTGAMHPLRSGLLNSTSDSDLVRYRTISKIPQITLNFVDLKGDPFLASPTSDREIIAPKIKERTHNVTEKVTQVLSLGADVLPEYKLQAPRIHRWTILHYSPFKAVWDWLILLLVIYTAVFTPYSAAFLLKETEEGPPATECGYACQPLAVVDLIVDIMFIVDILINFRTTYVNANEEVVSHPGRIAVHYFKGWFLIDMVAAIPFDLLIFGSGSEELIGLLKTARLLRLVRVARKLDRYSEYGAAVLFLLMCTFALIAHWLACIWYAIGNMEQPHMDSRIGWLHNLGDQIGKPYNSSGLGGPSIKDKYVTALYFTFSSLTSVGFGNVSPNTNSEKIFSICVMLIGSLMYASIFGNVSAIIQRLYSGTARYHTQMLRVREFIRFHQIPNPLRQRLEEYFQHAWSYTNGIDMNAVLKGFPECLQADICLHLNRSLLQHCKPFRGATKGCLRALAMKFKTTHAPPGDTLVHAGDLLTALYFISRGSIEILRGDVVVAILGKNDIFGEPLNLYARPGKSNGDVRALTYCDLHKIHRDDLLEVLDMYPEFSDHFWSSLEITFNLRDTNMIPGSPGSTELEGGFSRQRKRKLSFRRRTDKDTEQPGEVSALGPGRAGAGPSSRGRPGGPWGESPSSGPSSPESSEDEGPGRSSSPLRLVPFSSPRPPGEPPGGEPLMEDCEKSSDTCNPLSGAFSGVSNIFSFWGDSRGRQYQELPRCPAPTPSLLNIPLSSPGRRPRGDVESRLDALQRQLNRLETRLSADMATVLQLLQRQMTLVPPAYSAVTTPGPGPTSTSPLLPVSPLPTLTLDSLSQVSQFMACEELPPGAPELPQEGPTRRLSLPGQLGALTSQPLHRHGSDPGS

SMILES | IC50 (hERG) | IC50 [1] | IC50 [2] | IC50 at 5 min (hERG; human)
CCc1ccc(N(CC(C)C)S(=O)(=O)c2ccc(OCC3CCOCC3)c(S(C)(=N)=O)c2)cc1 (racemic) [compound 26, N-(4-ethylphenyl)-N-isobutyl-3-methanesulfonoximino-4-(tetrahydropyran-4-ylmethoxy)benzenesulfonamide] | > 30000 nM | < 100 nM | – | –
CCc1ccc(N(CC(C)C)S(=O)(=O)c2ccc(OCC3CCOCC3)c([S@@](C)(=N)=O)c2)cc1 (single isomer, unassigned) [compound 8, N-(4-ethylphenyl)-N-isobutyl-3-methanesulfoximino-4-(tetrahydropyran-4-ylmethoxy)benzenesulfonamide] | > 30000 nM | < 100 nM | – | –
CCc1ccc(N(CC(C)C)S(=O)(=O)c2ccc(OCC3CCOCC3)c([S@](C)(=N)=O)c2)cc1 [compound 7, N-(4-ethylphenyl)-N-isobutyl-3-methanesulfoximino-4-(tetrahydropyran-4-ylmethoxy)benzenesulfonamide] | > 30000 nM | < 100 nM | – | –
CCc1ccc(N(CC(C)C)S(=O)(=O)c2ccc(OCC3(F)CCOCC3)c(S(C)(=N)=O)c2)cc1 (stereo not shown) [compound 30, N-(4-ethylphenyl)-4-((4-fluorotetrahydro-2H-pyran-4-yl)methoxy)-N-isobutyl-3-(S-methylsulfonimidoyl)benzenesulfonamide] | – | < 100 nM | < 100 nM | –
CCc1ccc(N(CC(C)C)S(=O)(=O)c2ccc(OC[C@H]3[C@@H]4COC[C@@H]43)c(S(C)(=N)=O)c2)cc1 (stereo partly drawn) [compound 35, 4-(((1R,5S,6R)-3-oxabicyclo[3.1.0]hexan-6-yl)methoxy)-N-(4-ethylphenyl)-N-isobutyl-3-(S-methylsulfonimidoyl)benzenesulfonamide] | > 30000 nM | – | < 100 nM | –
CCc1ccc(N(CC(C)C)S(=O)(=O)c2ccc(OCC3CCSCC3)c(S(C)(=N)=O)c2)cc1 (stereo not shown) [compound 37] | – | – | – | 11800 nM
CCc1ccc(N(CC(C)C)S(=O)(=O)c2ccc(N(C)CC3CCOCC3)c(S(C)(=N)=O)c2)cc1 (stereo not shown) [compound 53, N-(4-ethylphenyl)-N-isobutyl-4-(methyl((tetrahydro-2H-pyran-4-yl)methyl)amino)-3-(S-methylsulfonimidoyl)benzenesulfonamide] | 11800 nM | < 100 nM | – | –
CCc1ccc(N(CC(C)C)S(=O)(=O)c2ccc(NCC3(C)CCOCC3)c(S(C)(=N)=O)c2)cc1 (stereo not shown) [compound 55, N-(4-ethylphenyl)-N-isobutyl-3-(S-methylsulfonimidoyl)-4-(((4-methyltetrahydro-2H-pyran-4-yl)methyl)amino)benzenesulfonamide] | 14100 nM | < 100 nM | – | –
CCc1ccc(N(CC(C)C)S(=O)(=O)c2ccc(NCC3CC(O)C3)c(S(C)(=N)=O)c2)cc1 (stereo not shown) [compound 61, N-(4-ethylphenyl)-4-(((3-hydroxycyclobutyl)methyl)amino)-N-isobutyl-3-(S-methylsulfonimidoyl)benzenesulfonamide] | 25700 nM | < 100 nM | < 100 nM | –
CCc1ccc(N(CC(C)C)S(=O)(=O)c2ccc(NCC3(F)CCOCC3)c(S(C)(=N)=O)c2)cc1 (stereo not shown) [compound 62, N-(4-ethylphenyl)-4-(((4-fluorotetrahydro-2H-pyran-4-yl)methyl)amino)-N-isobutyl-3-(S-methylsulfonimidoyl)benzenesulfonamide] | 16400 nM | < 100 nM | – | –
CCc1ccc(N(CC(C)C)S(=O)(=O)c2ccc(NCc3ccncc3)c(S(C)(=N)=O)c2)cc1 (stereo not shown) [compound 64, N-(4-ethylphenyl)-N-isobutyl-3-(S-methylsulfonimidoyl)-4-((pyridin-4-ylmethyl)amino)benzenesulfonamide] | – | < 100 nM | < 100 nM | –
CCc1ccc(N(CC(C)C)S(=O)(=O)c2ccc(N3CCSCC3)c(S(C)(=N)=O)c2)cc1 (stereo not shown) [compound 87, N-(4-ethylphenyl)-N-isobutyl-3-(S-methylsulfonimidoyl)-4-thiomorpholinobenzenesulfonamide] | – | < 100 nM | < 100 nM | –
CCc1ccc(N(CC(C)C)S(=O)(=O)c2ccc(NC[C@@H]3[C@H]4COC[C@@H]34)c(S(C)(=N)=O)c2)cc1 (stereo partly drawn) [compound 91, 4-((((1R,5S,6S)-3-oxabicyclo[3.1.0]hexan-6-yl)methyl)amino)-N-(4-ethylphenyl)-N-isobutyl-3-(S-methylsulfonimidoyl)benzenesulfonamide] | – | < 100 nM | < 100 nM | –
CCc1ccc(N(CC(C)C)S(=O)(=O)c2ccc(NCC3CSC3)c(S(C)(=N)=O)c2)cc1 (stereo not shown) [compound 99, N-(4-ethylphenyl)-N-isobutyl-3-(S-methylsulfonimidoyl)-4-((thietan-3-ylmethyl)amino)benzenesulfonamide] | – | < 100 nM | < 100 nM | –
CCc1ccc(N(CC(C)C)S(=O)(=O)c2ccc(N3CCOC[C@H]3C)c(S(C)(=N)=O)c2)cc1 (stereo partly drawn) [compound 103, N-(4-ethylphenyl)-N-isobutyl-4-((R)-3-methylmorpholino)-3-(S-methylsulfonimidoyl)benzenesulfonamide] | – | > 1000 nM | > 1000 nM | –
CCc1ccc(N(CC(C)C)S(=O)(=O)c2ccc(N3CCC4(COC4)C3)c(S(C)(=N)=O)c2)cc1 (stereo not shown) [compound 112, N-(4-ethylphenyl)-N-isobutyl-3-(S-methylsulfonimidoyl)-4-(2-oxa-6-azaspiro[3.4]octan-6-yl)benzenesulfonamide] | – | < 100 nM | 100 to 1000 nM | –
CCc1ccc(N(CC(C)C)S(=O)(=O)c2ccc(N3CCOCC3)c(S(C)(=N)=O)c2)cc1 (stereo not shown) [compound 123, N-(4-ethylphenyl)-N-isobutyl-3-(S-methylsulfonimidoyl)-4-morpholinobenzenesulfonamide] | – | < 100 nM | < 100 nM | –
CCc1ccc(N(CC(C)C)S(=O)(=O)c2ccc(NCC3(CC)CCOCC3)c(S(C)(=N)=O)c2)cc1 (stereo not shown) [compound 124, N-(4-ethylphenyl)-4-(((4-ethyltetrahydro-2H-pyran-4-yl)methyl)amino)-N-isobutyl-3-(S-methylsulfonimidoyl)benzenesulfonamide] | – | < 100 nM | – | –
CCc1ccc(N(CC(C)C)S(=O)(=O)c2ccc(NCC3(OC)CCOCC3)c(S(C)(=N)=O)c2)cc1 (stereo not shown) [compound 125, N-(4-ethylphenyl)-N-isobutyl-4-(((4-methoxytetrahydro-2H-pyran-4-yl)methyl)amino)-3-(S-methylsulfonimidoyl)benzenesulfonamide] | – | > 1000 nM | 100 to 1000 nM | –
CCc1ccc(N(CC(C)C)S(=O)(=O)c2ccc(N3CCC(O)CC3)c(S(C)(=N)=O)c2)cc1 (stereo not shown) [compound 128, N-(4-ethylphenyl)-4-(4-hydroxypiperidin-1-yl)-N-isobutyl-3-(S-methylsulfonimidoyl)benzenesulfonamide] | – | > 1000 nM | > 1000 nM | –
CCc1ccc(N(CC(C)C)S(=O)(=O)c2ccc(N3CC[C@H](O)C3)c(S(C)(=N)=O)c2)cc1 (stereo partly drawn) [compound 129, N-(4-ethylphenyl)-4-((S)-3-hydroxypyrrolidin-1-yl)-N-isobutyl-3-(S-methylsulfonimidoyl)benzenesulfonamide] | – | > 1000 nM | > 1000 nM | –
CCc1ccc(N(CC(C)C)S(=O)(=O)c2ccc(N3CC[C@@H](O)C3)c(S(C)(=N)=O)c2)cc1 (stereo partly drawn) [compound 130, N-(4-ethylphenyl)-4-((R)-3-hydroxypyrrolidin-1-yl)-N-isobutyl-3-(S-methylsulfonimidoyl)benzenesulfonamide] | – | > 1000 nM | > 1000 nM | –
CCc1ccc(N(CC(C)C)S(=O)(=O)c2ccc(N3CC(O)C3)c(S(C)(=N)=O)c2)cc1 (stereo not shown) [compound 131, N-(4-ethylphenyl)-4-(3-hydroxyazetidin-1-yl)-N-isobutyl-3-(S-methylsulfonimidoyl)benzenesulfonamide] | – | > 1000 nM | > 1000 nM | –
CCc1ccc(N(CC(C)C)S(=O)(=O)c2ccc(NCc3ccncn3)c(S(C)(=N)=O)c2)cc1 (stereo not shown) [compound 133, N-(4-ethylphenyl)-N-isobutyl-3-(S-methylsulfonimidoyl)-4-((pyrimidin-4-ylmethyl)amino)benzenesulfonamide] | – | < 100 nM | < 100 nM | –
Cc1ccc(N(CC(C)C)S(=O)(=O)c2ccc(OCC3CCOCC3)c(S(C)(=N)=O)c2)c(C)c1 (stereo not shown) [compound 142, N-(2,4-dimethylphenyl)-N-isobutyl-3-(S-methylsulfonimidoyl)-4-((tetrahydro-2H-pyran-4-yl)methoxy)benzenesulfonamide] | – | < 100 nM | < 100 nM | –
